# Measurements as given in patent US20250101042A1, “KRAS G12D MODULATING COMPOUNDS” (Gilead Sciences, Inc., priority 2023, published 2025).
# What was measured:
# GDP-loaded KRAS G12D = GDP-loaded KRAS G12D (Homo sapiens, UniProt P01116, G12D); experiment: KRAS G12D (GDP) Biochemical Assay (TR-FRET probe displacement); format: binding; conditions: 0.5 nM enzyme, 2 hours at room temperature
# Method: Example A. KRAS G12D (GDP) Biochemical Assay
# Compounds were tested for binding to GDP-loaded KRAS G12D in a 384-well assay format using a TR-FRET probe displacement assay in buffer consisting of 50 mM Hepes (pH 7.4), 150 mM NaCl, 5 mM MgCl2 and 0.005% Tween-20. […] Compounds were serially diluted (1:3) in DMSO. The LabCyte ECHO Acoustic dispenser system was used to pre-spot the assay plates (384-well Non-Binding Surface plates, Corning, Catalog #3824) with 50 nL of compound. The compounds were pre-incubated with 5 μL of 2× final enzyme concentration for 30 minutes before adding 5 μL of 2× final concentration of Eu-streptavidin and TR-FRET probe (10 μL final reaction volume). The plates were incubated at room temperature for 2 hours before measuring TR-FRET ratio on the Envision plate reader. IC50 values were defined as the compound concentration that causes a 50% decrease in TR-FRET ratio and were calculated using a sigmoidal dose-response model to generate curve fits.
# GP2D (KRAS G12D) cells = experiment: 2D Cell Viability Assay (CellTiter-Glo); format: cell-based; conditions: 4 days, CellTiter-Glo luminescence
# Method: Example B. 2D Cell Viability Assay
# Compounds were tested in a 384-well format for their ability to inhibit the viability of GP2D (KRAS G12D) cells in 2D assays. Compounds were serially diluted (1:3) in DMSO. The LabCyte ECHO Acoustic dispenser system was used to pre-spot assay plates with 200 nL of test molecule per well. 1000 cells/well (40 μL volume per well) in RPMI medium with 10% FBS, and Penicillin-Streptomycin-Glutamine were plated in pre-spotted 384-well plates (Greiner, Catalog #781076) on the BioTEK EL406 liquid dispenser with a 5 μL dispensing cassette (BioTek 7170011). The plates were incubated at 37° C., 5% CO2 for 4 days before addition of CellTiter-Glo (CTG) reagent and measurement of luminescence signal. EC50 values were defined as the compound concentration that causes a 50% decrease in luminescence signal and were calculated using a sigmoidal dose-response model to generate curve fits.
# GDP-loaded KRAS G12D, sequence (P01116 1-188 isoform P01116-2 G12D): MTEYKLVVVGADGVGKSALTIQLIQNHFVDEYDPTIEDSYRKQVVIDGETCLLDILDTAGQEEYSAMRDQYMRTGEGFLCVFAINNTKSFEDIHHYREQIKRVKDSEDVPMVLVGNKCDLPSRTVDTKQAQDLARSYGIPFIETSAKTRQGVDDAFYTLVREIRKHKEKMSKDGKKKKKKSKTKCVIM
Compound,IC50 (GDP-loaded KRAS G12D) [nM],"EC50 (GP2D (KRAS G12D) cells; GP2d, 96 h) [nM]",EC50 (GP2D (KRAS G12D) cells) [nM]
"Cc1c(F)c(N)nc(-c2nc3c4c(nc(OC[C@@]56CCCN5C[C@H](F)C6)nc4c2F)N2C[C@H]4CC[C@H](N4)[C@H]2CCC3)c1C(F)(F)F [Example 11, 3-fluoro-6-((6aR,7S,10R)-1-fluoro-13-(((2R,7aS)-2-fluorotetrahydro-1H-pyrrolizin-7a(5H)-yl)methoxy)-5,6,6a,7,8,9,10,11-octahydro-4H-3,11a,12,14,15-pentaaza-7,10-methanocyclohepta[4,5]cycloocta[1,2,3-de]naphthalen-2-yl)-4-methyl-5-(trifluoromethyl)pyridin-2-amine]",12,34,
"Cc1cc(N)nc(-c2cc3c4c(nc(OC[C@@]56CCCN5C[C@H](F)C6)nc4c2F)N2C[C@H]4CC[C@H](N4)[C@H]2CC3)c1C(F)(F)F [Example 9, 6-((1S,4R,14aR)-10-fluoro-8-(((2R,7aS)-2-fluorotetrahydro-1H-pyrrolizin-7a(5H)-yl)methoxy)-1,2,3,4,5,13,14,14a-octahydro-1,4-epiminoazepino[1′,2′:1,7]azepino[2,3,4-de]quinazolin-11-yl)-4-methyl-5-(trifluoromethyl)pyridin-2-amine]",2.5,37,
"Cc1cc(N)nc(-c2nc3c4c(nc(OC[C@@]56CCCN5C[C@H](F)C6)nc4c2F)N2C[C@H]4CC[C@H](N4)[C@H]2CC3)c1C(F)(F)F [Example 1, 6-((5aR,6S,9R)-1-fluoro-12-(((2R,7aS)-2-fluorotetrahydro-1H-pyrrolizin-7a(5H)-yl)methoxy)-4,5,5a,6,7,8,9,10-octahydro-3,10a,11,13,14-pentaaza-6,9-methanonaphtho[1,8-ab]heptalen-2-yl)-4-methyl-5-(trifluoromethyl)pyridin-2-amine]",0.84,16,
"Cc1cc(N)[n+]([O-])c(-c2nc3c4c(nc(OC[C@@]56CCCN5C[C@H](F)C6)nc4c2F)N2C[C@H]4CC[C@H](N4)[C@H]2CCC3)c1C(F)(F)F [Example 8, 6-amino-2-((6aR,7S,10R)-1-fluoro-13-(((2R,7aS)-2-fluorotetrahydro-1H-pyrrolizin-7a(5H)-yl)methoxy)-5,6,6a,7,8,9,10,11-octahydro-4H-3,11a,12,14,15-pentaaza-7,10-methanocyclohepta[4,5]cycloocta[1,2,3-de]naphthalen-2-yl)-4-methyl-3-(trifluoromethyl)pyridine 1-oxide]",> 100,> 100,
"Cc1cc(N)nc(-c2c(F)c3c4c(nc(OC[C@@]56CCCN5C[C@H](F)C6)nc4c2F)N2C[C@H]4CC[C@H](N4)[C@H]2CC3)c1C(F)(F)F (single isomer, unassigned) [Example 21]",2,,12
"N#Cc1c(N)sc2c(F)ccc(-c3c(F)c4c5c(nc(OC[C@@]67CCCN6C[C@H](F)C7)nc5c3F)N3C[C@H]5CC[C@H](N5)[C@H]3CC4)c12 (single isomer, unassigned) [Example 59]",4.2,,24
"C=Cc1c(-c2nc(N)cc(C)c2C(F)(F)F)c(F)c2nc(OC[C@@]34CCCN3C[C@H](F)C4)nc3c2c1CC[C@@H]1[C@@H]2CC[C@H](CN31)N2 [Example 15, 6-((1S,4R,14aR)-10-fluoro-8-(((2R,7aS)-2-fluorotetrahydro-1H-pyrrolizin-7a(5H)-yl)methoxy)-12-vinyl-1,2,3,4,5,13,14,14a-octahydro-1,4-epiminoazepino[1′,2′:1,7]azepino[2,3,4-de]quinazolin-11-yl)-4-methyl-5-(trifluoromethyl)pyridin-2-amine]",0.43,24,
"Nc1nc2c(F)ccc(-c3nc4c5c(nc(OC[C@@]67CCCN6C[C@H](F)C7)nc5c3F)N3C[C@H]5CC[C@H](N5)[C@H]3CC4)c2s1 [Example 20, 4-fluoro-7-((5aR,6S,9R)-1-fluoro-12-(((2R,7aS)-2-fluorotetrahydro-1H-pyrrolizin-7a(5H)-yl)methoxy)-4,5,5a,6,7,8,9,10-octahydro-3,10a,11,13,14-pentaaza-6,9-methanonaphtho[1,8-ab]heptalen-2-yl)benzo[d]thiazol-2-amine]",8.2,> 100,
"C[C@H]1Cc2c(F)c(-c3ccc(F)c4sc(N)c(C#N)c34)c(F)c3nc(OC[C@@]45CCCN4C[C@H](F)C5)nc(c23)N2C[C@H]3CC[C@H](N3)[C@H]12 (atropisomer, axis not shown; (aS)) [Example 34, (S)-2-amino-4-((1S,4R,14S,14aS)-10,12-difluoro-8-(((2R,7aS)-2-fluorotetrahydro-1H-pyrrolizin-7a(5H)-yl)methoxy)-14-methyl-1,2,3,4,5,13,14,14a-octahydro-1,4-epiminoazepino[1′,2′:1,7]azepino[2,3,4-de]quinazolin-11-yl)-7-fluorobenzo[b]thiophene-3-carbonitrile]",0.08,0.5,
"N#Cc1c(N)sc2cccc(-c3nc4c5c(nc(OC[C@@]67CCCN6C[C@H](F)C7)nc5c3F)N3C[C@H]5CC[C@H](N5)[C@H]3CCC4)c12 [Example 12, 2-amino-4-((6aR,7S,10R)-1-fluoro-13-(((2R,7aS)-2-fluorotetrahydro-1H-pyrrolizin-7a(5H)-yl)methoxy)-5,6,6a,7,8,9,10,11-octahydro-4H-3,11a,12,14,15-pentaaza-7,10-methanocyclohepta[4,5]cycloocta[1,2,3-de]naphthalen-2-yl)benzo[b]thiophene-3-carbonitrile]",0.17,3.5,
"CCc1c(-c2nc(N)cc(C)c2C(F)(F)F)c(F)c2nc(OC[C@@]34CCCN3C[C@H](F)C4)nc3c2c1CC[C@@H]1[C@@H]2CC[C@H](CN31)N2 [Example 16, 6-((1S,4R,14aR)-12-ethyl-10-fluoro-8-(((2R,7aS)-2-fluorotetrahydro-1H-pyrrolizin-7a(5H)-yl)methoxy)-1,2,3,4,5,13,14,14a-octahydro-1,4-epiminoazepino[1′,2′:1,7]azepino[2,3,4-de]quinazolin-11-yl)-4-methyl-5-(trifluoromethyl)pyridin-2-amine]",0.82,20,
"C#Cc1c(F)ccc2cc(N)nc(-c3c(Cl)c4c5c(nc(OC[C@@]67CCCN6C[C@H](F)C7)nc5c3F)N3C[C@H]5CC[C@H](N5)[C@@H]3[C@@H](C)C4)c12 (atropisomer, axis not shown; (aS)) [Example 48, 1-((1S,4R,11R,14S,14aS)-12-chloro-10-fluoro-8-(((2R,7aS)-2-fluorotetrahydro-1H-pyrrolizin-7a(5H)-yl)methoxy)-14-methyl-1,2,3,4,5,13,14,14a-octahydro-1,4-epiminoazepino[1′,2′:1,7]azepino[2,3,4-de]quinazolin-11-yl)-8-ethynyl-7-fluoroisoquinolin-3-amine]",,8.1,
"C[C@H]1Cc2c(Cl)c(-c3ncc(F)c4sc(N)c(C#N)c34)c(F)c3nc(OC[C@@]45CCCN4C[C@H](F)C5)nc(c23)N2C[C@H]3CC[C@H](N3)[C@H]12 (atropisomer, axis not shown; (aS)) [Example 56, 2-amino-4-((1S,4R,11S,14S,14aS)-12-chloro-10-fluoro-8-(((2R,7aS)-2-fluorotetrahydro-1H-pyrrolizin-7a(5H)-yl)methoxy)-14-methyl-1,2,3,4,5,13,14,14a-octahydro-1,4-epiminoazepino[1′,2′:1,7]azepino[2,3,4-de]quinazolin-11-yl)-7-fluorothieno[3,2-c]pyridine-3-carbonitrile]",0.11,2,
"Cc1cc(N)nc(-c2nc3c4c(nc(OC[C@@]56CCCN5C[C@H](F)C6)nc4c2F)N2C[C@H]4CC[C@H](N4)[C@@H]2CC3)c1C(F)(F)F [Example 4, 6-((5aS,6S,9R)-1-fluoro-12-(((2R,7aS)-2-fluorotetrahydro-1H-pyrrolizin-7a(5H)-yl)methoxy)-4,5,5a,6,7,8,9,10-octahydro-3,10a,11,13,14-pentaaza-6,9-methanonaphtho[1,8-ab]heptalen-2-yl)-4-methyl-5-(trifluoromethyl)pyridin-2-amine]",62,> 100,
"C[C@H]1Cc2c(Cl)c(-c3ccc(F)c4sc(N)c(C#N)c34)c(F)c3nc(OC[C@@]45CCCN4C[C@H](F)C5)nc(c23)N2C[C@H]3CC[C@H](N3)[C@H]12 (atropisomer, axis not shown; (aS)) [Example 52, 2-amino-4-((1S,4R,11R,14S,14aS)-12-chloro-10-fluoro-8-(((2R,7aS)-2-fluorotetrahydro-1H-pyrrolizin-7a(5H)-yl)methoxy)-14-methyl-1,2,3,4,5,13,14,14a-octahydro-1,4-epiminoazepino[1′,2′:1,7]azepino[2,3,4-de]quinazolin-11-yl)-7-fluorobenzo[b]thiophene-3-carbonitrile]",0.03,,
